From patent US4145444A, “Anti-inflammatory agent of benzoyl derivative” (priority 1977, dated 1979)

Experiments:
platelet = experiment: Blood platelet aggregation inhibiting effect (collagen-induced); type: cell-based, rabbits; settings: Oryctolagus cuniculus, Platelet; 10^-4 mole, collagen inducer, rabbit PRP; read-out: Blood platelet agg. inh.: percentage inhibition of platelet aggregation
Text: Male rabbits (Japan original white strain 3.3 to 3.6 kg) were anesthetized with Thiopental sodium and blood was sampled from the carotid artery.

thrombus = experiment: Inhibiting effect on thrombosis (by-pass between left juglar vein and right carotid artery, silk thread); type: in vivo, SD type male rates; settings: Rattus norvegicus; 100 mg/kg oral, 5 hours before first blood circulation, rats; read-out: Thrombosis inh.: thrombosis inhibition rate
Experimental: The inhibiting effects of the samples of the invention on thrombosis were tested by the following test method.
A 0.5 ml of 50 μ/ml of the heparin physiological saline was added through the polyethylene tube before the first blood circulation. After the blood circulation for 15 minutes, the circulation was stopped in the middle of the tubing at artery side with a pinch cock.
Then, 0.2 ml of the heparin physiological saline was added to remove the blood coagulates on the tubing wall and another new polyethylene tubing filled with the heparin solution and containing a piece of new silk thread was attached between the venous and artery tubing ends.
The blood circulation was reestablished by opening the pinch cock. After 15 minutes, the wet weight of thrombus on the silk thread was similarly measured.
In the same manner, the third circulation was performed and wet weight of thrombus measured.
The amount of thrombus was given by the equation A. [formula] Each sample was suspended in an aqueous solution of sodium carboxymethyl cellulose and the oral dose of the suspension (100 mg/kg) was performed at 5 hours before the first blood circulation.
The amount of thrombus after the oral dose of the sample was calculated in the same manner as that of control circulations.
The thrombosis inhibition rate was given by the equation B. [formula]

hind paws of male rats = experiment: Anti-inflammatory effect: acute carragheenin edema method; type: in vivo; settings: Rattus norvegicus; 100 mg/kg oral, carragheenin edema, male rats (Table 2); read-out: Anti-inf.: edema inhibition rate
Experimental: The edema was induced by subcutaneous injection of 1% carragheenin suspension in saline to the hind paws of male rats weighting 150 to 180 g. Each sample was orally given at the dosage of 100 mg/kg just before the inoculation of carragheenin.

male mice = experiment: Analgesic effect: painful stretchings following intraperitoneal 0.7% acetic acid; settings: Mus musculus, po, read-out: Analgesic: percentage diminition of times of painful stretching
Experimental: Each sample was orally administered in the dosage of 100 mg/kg before injection of acetic acid.

Row | Structure (SMILES) | inhibition at 100 µM (platelet) [%] | inhibition in vivo at 100 mg/kg (thrombus) [%] | inhibition in vivo at 100 mg/kg (hind paws of male rats) [%] | inhibition in vivo at 100 mg/kg (male mice) [%]
1 | CCCc1ccc(C(=O)c2ccc(OC)cc2)cc1 [compound 93] | 24.4 | 26.8 | 20.4 | 14.7
2 | CCCc1ccc(C(=O)c2c(C)cc(C)cc2C)cc1 [compound 97] | 26.8 | 37.3 | 13 | 14.7
3 | CCCCCc1ccc(C(=O)c2ccccc2)cc1 [compound 23] | 13.8 | 22.3 | 50.4 | 10.1
4 | CCCCOc1ccc(C(=O)c2c(C)cc(C)cc2C)cc1 [compound 94] | 27.9 | 37.4 | 26.6 | 15.8
5 | C=Cc1ccc(C(=O)c2ccccc2)cc1 [compound 82] | 20.5 | 30.1 | 23.8 | 13.5
6 | CC(C)(C)c1ccc(C(=O)c2ccccc2)cc1 [compound 22] | 9.5 | 7.9 | 36.4 | 8.2
7 | CCCCCCCCCc1ccc(C(=O)c2ccccc2)cc1 [compound 70] | 17.2 | 10 | 23.2 | 7
8 | CCCCc1ccc(C(=O)C(=O)c2ccccc2)cc1 [compound 29] | 11.1 | 15.3 | 44.7 | 2.7
9 | CCCCCc1ccc(C(=O)c2ccc(OC)cc2)cc1 [compound 45] | 17.7 | 30.8 | 37.8 | 12.5
10 | Cc1cc(C)c(C(=O)c2ccc(Cl)cc2)c(C)c1 [compound 14] | 18.1 | 23.3 | 37.3 | 19.2
11 | CCc1ccc(CC)c(C(=O)c2ccccc2)c1 [compound 80] | 30.3 | 28.5 | 31.9 | 16.2
12 | CCc1ccc(C(=O)c2ccc(C)cc2)cc1 [compound 33] | 20.5 | 28.3 | 43.9 | 15.5
13 | CCCCCCCCCCc1ccc(C(=O)Cc2ccccc2)cc1 [compound 50] | 8.7 | 28.3 | 25.5 | 16.4
14 | Cc1cc(C)c(C(=O)c2ccccc2)cc1C [compound 32] | 12.4 | 25 | 47.7 | 26.2
15 | CCCCCc1ccc(C(=O)c2ccc(CCC)cc2)cc1 [compound 99] | 29.5 | 30.3 | 34.1 | 15.5
16 | CCCCc1ccc(C(=O)c2ccccc2C)cc1 [compound 40] | 11.9 | 30.3 | 58.1 | 20.3
17 | Cc1ccc(C(=O)c2ccc(C)cc2)cc1 [compound 83] | 27.6 | 19.3 | 20 | 12.1
18 | CCCc1ccc(C(=O)c2ccccc2F)cc1 [compound 7] | 23 | 24.6 | 55.6 | 15
